Literature values, collected in patent US20230218693A1, “HEMP SPROUT PRODUCTS AND METHODS FOR PRODUCING SAME” (priority 2020, published 2023).
pIC50: −log10 of the molar value. Read-outs that look alike come from different tables or passages of the source.

Key:
[1] = system: HepG2 human hepatic carcinoma cells; conditions: dose-dependently up to 500 μM
[2] = result in words
[3] = result in words; remark: listed apart in the source
5-LO [4] = biological target: T1, 5-LO (Homo sapiens, UniProt P09917); conditions: 5-LO cell-free
T1 sequence (P09917 1-674): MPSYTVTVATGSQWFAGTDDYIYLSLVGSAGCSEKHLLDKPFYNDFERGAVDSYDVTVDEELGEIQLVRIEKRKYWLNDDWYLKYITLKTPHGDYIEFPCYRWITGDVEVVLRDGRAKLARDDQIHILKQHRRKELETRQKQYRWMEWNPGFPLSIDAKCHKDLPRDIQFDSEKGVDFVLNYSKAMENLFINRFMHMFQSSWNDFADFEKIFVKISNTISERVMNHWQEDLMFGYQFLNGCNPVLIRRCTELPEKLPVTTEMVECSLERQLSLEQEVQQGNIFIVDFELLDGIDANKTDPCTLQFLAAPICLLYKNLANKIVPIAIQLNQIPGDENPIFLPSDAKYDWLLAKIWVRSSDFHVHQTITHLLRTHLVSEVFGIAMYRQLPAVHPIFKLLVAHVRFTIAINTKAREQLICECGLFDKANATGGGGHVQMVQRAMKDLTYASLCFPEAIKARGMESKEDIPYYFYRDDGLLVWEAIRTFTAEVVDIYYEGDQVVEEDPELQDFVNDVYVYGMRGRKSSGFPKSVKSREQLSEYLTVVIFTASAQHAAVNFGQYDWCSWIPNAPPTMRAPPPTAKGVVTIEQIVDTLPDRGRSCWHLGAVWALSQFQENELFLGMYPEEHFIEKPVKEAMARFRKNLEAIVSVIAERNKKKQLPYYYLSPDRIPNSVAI

mPGES-1 = biological target: T2, mPGES-1 (Homo sapiens, UniProt O14684)
T2 sequence (O14684 1-152): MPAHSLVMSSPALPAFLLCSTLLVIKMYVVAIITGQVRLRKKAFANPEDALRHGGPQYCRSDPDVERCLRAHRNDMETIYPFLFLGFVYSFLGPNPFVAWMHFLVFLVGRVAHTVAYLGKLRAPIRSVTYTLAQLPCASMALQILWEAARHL

COX-2 [5] = biological target: T3, COX-2 (Homo sapiens, UniProt P35354)
T3 sequence (P35354 18-604): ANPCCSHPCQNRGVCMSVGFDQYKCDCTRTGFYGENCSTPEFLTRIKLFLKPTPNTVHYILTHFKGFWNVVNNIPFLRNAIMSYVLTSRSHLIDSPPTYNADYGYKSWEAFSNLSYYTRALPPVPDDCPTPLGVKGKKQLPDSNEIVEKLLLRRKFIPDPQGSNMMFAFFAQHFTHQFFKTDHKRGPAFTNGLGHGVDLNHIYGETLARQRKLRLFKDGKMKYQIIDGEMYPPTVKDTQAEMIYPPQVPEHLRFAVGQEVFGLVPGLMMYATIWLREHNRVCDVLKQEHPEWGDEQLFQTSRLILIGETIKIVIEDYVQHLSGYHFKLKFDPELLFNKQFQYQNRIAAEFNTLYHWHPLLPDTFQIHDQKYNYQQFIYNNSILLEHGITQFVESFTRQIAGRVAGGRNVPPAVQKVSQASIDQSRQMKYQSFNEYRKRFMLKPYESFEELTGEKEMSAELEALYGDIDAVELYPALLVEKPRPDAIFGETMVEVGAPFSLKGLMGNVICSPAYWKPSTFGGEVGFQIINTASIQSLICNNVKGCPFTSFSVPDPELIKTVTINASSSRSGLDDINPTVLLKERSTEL

PGE2 = conditions: result in words
COX-1 [6] = system: COX-1
COX-1 [7] = biological target: T4, COX-1 (Homo sapiens, UniProt P23219); conditions: COX-1, platelets
T4 construct: endogenous in cells; host or cells: freshly isolated human blood cells (platelets, according to the assay name)

5-LO [8] = biological target: T1, 5-LO; set-up: endogenous in cells; host or cells: freshly isolated human neutrophils (PMNL); conditions: PMNL, A23187 + AA
[9] = system: freshly isolated human blood cells; conditions: for Effect on cell viability: human cells
5-LO [10] = biological target: T1, 5-LO; set-up: endogenous in cells; host or cells: freshly isolated human neutrophils (PMNL); conditions: PMNL
COX-2 [11] = biological target: T3, COX-2; set-up: endogenous in cells; host or cells: freshly isolated human monocytes; conditions: COX-2, monocytes
cPLA2 = biological target: T5, cPLA2 (Homo sapiens, UniProt P47712); conditions: cPLA2, cell-free
T5 sequence (P47712 1-749): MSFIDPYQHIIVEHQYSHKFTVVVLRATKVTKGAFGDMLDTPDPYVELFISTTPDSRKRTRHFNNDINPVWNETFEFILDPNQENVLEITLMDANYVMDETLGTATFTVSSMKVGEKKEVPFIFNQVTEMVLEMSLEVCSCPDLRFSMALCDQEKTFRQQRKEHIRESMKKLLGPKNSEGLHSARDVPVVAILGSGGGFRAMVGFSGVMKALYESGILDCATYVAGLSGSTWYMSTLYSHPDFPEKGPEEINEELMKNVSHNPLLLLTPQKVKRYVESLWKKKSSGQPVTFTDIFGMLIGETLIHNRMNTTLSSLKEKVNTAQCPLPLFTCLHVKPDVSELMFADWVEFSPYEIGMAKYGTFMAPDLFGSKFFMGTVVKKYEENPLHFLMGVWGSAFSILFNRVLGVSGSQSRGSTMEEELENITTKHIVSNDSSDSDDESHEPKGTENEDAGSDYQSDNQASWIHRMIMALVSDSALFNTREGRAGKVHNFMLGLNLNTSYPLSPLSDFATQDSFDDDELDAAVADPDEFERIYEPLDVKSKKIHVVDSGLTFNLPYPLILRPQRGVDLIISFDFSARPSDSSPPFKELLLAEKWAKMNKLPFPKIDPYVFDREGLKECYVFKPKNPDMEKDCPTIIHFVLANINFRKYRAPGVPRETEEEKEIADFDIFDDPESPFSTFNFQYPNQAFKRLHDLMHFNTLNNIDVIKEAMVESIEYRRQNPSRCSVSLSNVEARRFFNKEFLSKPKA

T4 sequence (P23219 24-599): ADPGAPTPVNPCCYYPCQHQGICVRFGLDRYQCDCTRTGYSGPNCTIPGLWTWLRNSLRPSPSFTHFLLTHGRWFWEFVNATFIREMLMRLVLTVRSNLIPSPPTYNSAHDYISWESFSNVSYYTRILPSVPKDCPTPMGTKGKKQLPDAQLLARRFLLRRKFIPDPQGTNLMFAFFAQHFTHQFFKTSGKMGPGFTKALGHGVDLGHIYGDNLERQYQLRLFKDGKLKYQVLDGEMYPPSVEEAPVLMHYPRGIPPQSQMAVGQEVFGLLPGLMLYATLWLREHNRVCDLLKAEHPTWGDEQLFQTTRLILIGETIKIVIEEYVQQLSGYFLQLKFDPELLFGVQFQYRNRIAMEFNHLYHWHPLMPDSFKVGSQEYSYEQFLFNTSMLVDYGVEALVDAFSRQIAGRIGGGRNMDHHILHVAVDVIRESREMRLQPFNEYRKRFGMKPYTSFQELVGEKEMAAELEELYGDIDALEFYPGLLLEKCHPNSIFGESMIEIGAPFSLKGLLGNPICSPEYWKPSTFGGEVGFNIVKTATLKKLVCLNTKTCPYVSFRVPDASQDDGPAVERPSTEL

O=C(NCCc1ccc(O)cc1)C1=Cc2cc(O)c(O)cc2[C@H](c2ccc(O)c(O)c2)[C@H]1C(=O)NCCc1ccc(O)cc1 [cannabisin B]
Antiproliferative effects in HepG2 cells [1]: produced antiproliferative effects
Antioxidant activity against DPPH radicals [2]: demonstrated antioxidant activity against DPPH radicals
Inhibition of human LDL oxidation [3]: prominent inhibition of human LDL oxidation

CC(c1cc2ccccc2s1)N(O)C(N)=O (stereo not shown) [Zileuton, reference compound]
Reference control, % inhibition at indic. conc. (5-LO [4]; 3 μM): Zileuton (3 μM), 80 ± 4%

O=C(/C=C/c1ccc(O)c(O)c1)NCCc1ccc(O)cc1 [caffeoyltyramine]
Antioxidant activity against DPPH radicals [2]: demonstrated antioxidant activity against DPPH radicals
Inhibition of human LDL oxidation [3]: prominent inhibition of human LDL oxidation

COc1cc(-c2cc(=O)c3c(O)c(C/C=C(\C)CCC=C(C)C)c(O)cc3o2)ccc1O [CFA, Cannflavin A]
% inhibition at 10 μM (mPGES-1; mPGES-1, cell-free, 10 μM): 90 ± 1%
pIC50 (mPGES-1; mPGES-1, cell-free, read-out: CFA(1) IC50): 5.74
Inhibition of mPGES-1 (mPGES-1; result in words): directly inhibited mPGES-1
% inhibition at 10 μM (COX-2 [5]; COX-2, cell-free, 10 μM): 35 ± 12%
pIC50 (COX-2 [5]; COX-2, cell-free, read-out: CFA(1) IC50): < 5.00
Inhibition of COX-2 (COX-2 [5]; result in words): did not significantly inhibit COX-2
Suppression of PGE2 (PGE2): suppressed PGE2
% inhibition at 10 μM (COX-1 [6]; COX-1, cell-free, 10 μM): 36 ± 2%
pIC50 (COX-1 [6]; COX-1, cell-free, read-out: CFA(1) IC50): < 5.00
Inhibition of COX-1 (COX-1 [6]; result in words): did not significantly inhibit COX-1
% inhibition at 10 μM (COX-1 [7]; 10 μM, vs vehicle (0.1% DMSO)): 26 ± 2%
pIC50 (COX-1 [7]; added 15 min prior induction, read-out: CFA(1) IC50): < 5.00
Effect in DPPH assay (antioxidant activity): No effect
Effect in DPPH assay (antioxidant activity) (listed as cannflavin A): did not demonstrate innate antioxidant activity
% inhibition at 10 μM (5-LO [8]; 10 μM): 91 ± 1%
pIC50 (5-LO [8]; read-out: CFA(1) IC50): 5.80
Effect on cell viability [9]: no effect
Effect on cell viability ([9]; listed as cannflavin A): no deleterious effects on human cell viability
Cytotoxicity ([9]; result in words): no evidence of cytotoxicity
% inhibition at 10 μM (5-LO [10]; A23187, 10 μM): 98 ± 2%
pIC50 (5-LO [10]; A23187, read-out: CFA(1) IC50): 5.62
% inhibition at 10 μM (COX-2 [11]; 10 μM): 56 ± 8%
pIC50 (COX-2 [11]; read-out: CFA(1) IC50): 5.06
% inhibition at 10 μM (5-LO [4]; 10 μM): 88 ± 3%
pIC50 (5-LO [4]; read-out: CFA(1) IC50): 6.05
% inhibition at 10 μM (cPLA2; 10 μM): 26 ± 8%
pIC50 (cPLA2; read-out: CFA(1) IC50): < 5.00

COc1ccc2c(c1)c(CC(=O)O)c(C)n2C(=O)c1ccc(Cl)cc1 [Indomethacin, reference compound]
Reference control, % inhibition at indic. conc. (COX-1 [6]; COX-1, cell-free, 20 μM): Indomethacin (20 μM), 81 ± 8%
